One compound from US4999424A, “GAR transformylase inhibitor” (The Pennsylvania State University, priority 1988, dated 1991) can be followed below.

One experiment addresses T1, GAR TFase (L1210) (Mus musculus, UniProt Q64737).
T1 construct: GAR TFase activity is the C-terminal domain of trifunctional Gart
T1 sequence (Q64737 2-1010): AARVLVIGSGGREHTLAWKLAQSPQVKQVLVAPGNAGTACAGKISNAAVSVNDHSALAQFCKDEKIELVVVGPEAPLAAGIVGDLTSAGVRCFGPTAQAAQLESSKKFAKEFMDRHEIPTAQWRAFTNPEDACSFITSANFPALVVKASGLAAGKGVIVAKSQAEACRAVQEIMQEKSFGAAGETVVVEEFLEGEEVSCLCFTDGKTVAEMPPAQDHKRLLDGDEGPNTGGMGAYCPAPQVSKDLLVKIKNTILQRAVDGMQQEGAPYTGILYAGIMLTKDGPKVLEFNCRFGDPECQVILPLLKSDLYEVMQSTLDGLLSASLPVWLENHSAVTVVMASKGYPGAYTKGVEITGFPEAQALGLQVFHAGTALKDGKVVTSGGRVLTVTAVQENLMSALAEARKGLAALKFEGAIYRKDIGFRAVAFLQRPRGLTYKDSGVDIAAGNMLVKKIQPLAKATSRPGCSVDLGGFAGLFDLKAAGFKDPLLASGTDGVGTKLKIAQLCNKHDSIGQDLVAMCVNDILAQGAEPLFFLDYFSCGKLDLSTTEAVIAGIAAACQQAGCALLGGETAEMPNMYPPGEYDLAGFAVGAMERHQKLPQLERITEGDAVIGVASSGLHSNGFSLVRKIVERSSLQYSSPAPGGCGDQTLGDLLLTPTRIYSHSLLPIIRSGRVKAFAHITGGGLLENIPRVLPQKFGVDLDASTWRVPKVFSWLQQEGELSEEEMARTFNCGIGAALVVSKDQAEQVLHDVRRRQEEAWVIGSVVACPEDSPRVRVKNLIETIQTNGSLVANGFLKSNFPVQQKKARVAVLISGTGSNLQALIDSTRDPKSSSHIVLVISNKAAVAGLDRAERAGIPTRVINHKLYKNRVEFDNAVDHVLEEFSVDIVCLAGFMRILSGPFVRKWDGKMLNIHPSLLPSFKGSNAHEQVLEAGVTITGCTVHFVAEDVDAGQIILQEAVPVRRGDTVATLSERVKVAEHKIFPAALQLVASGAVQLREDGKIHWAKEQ
Nature of the experiment: L1210 GAR TFase inhibition. The class given is biochemical. Particulars: for Mode of inhibition: L1210 GAR TFase. On the procedure: All assays were carried out by following the increase of 5,8-dideazafolate absorbence at 295 nm in buffered medium at 26° C. To initiate the reaction, enzyme (1 nM final concentration) was added to a mixture of saturating substrates and variable amounts of inhibitor. […] See, Morrison, Trends Biochem. Sc., 7, 102 (1982) and Morrison, et al., Adv. Enzymology, Relat. Areas Mol. Biol., 57, 201-301 (1987).
The specificity of beta-TGDDF for GAR TFase from species other than E. coli was assayed in a general manner by measuring the activity of GAR TFase at a concentration of 1 nM from avian, HeLa, and L121? sources in the presence of 20 nM beta-TGDDF.
This test, was conducted using the same [I]/[E]ratios as stated previously.
E. coli GAR TFase was prepared and purified as described below. L1210 and HeLa GAR TFase were purified according to published procedures. AICAR TFase was prepared according to published procedures.

In another experiment the target is T2, E. coli GAR TFase (Escherichia coli, UniProt P08179).
T2 construct: made in house; host or cells: E. coli TX393 with multicopy plasmid pJS85, or E. coli TX635 with lambda pL plasmid pJS119 or pJS167
T2 sequence (P08179 1-212): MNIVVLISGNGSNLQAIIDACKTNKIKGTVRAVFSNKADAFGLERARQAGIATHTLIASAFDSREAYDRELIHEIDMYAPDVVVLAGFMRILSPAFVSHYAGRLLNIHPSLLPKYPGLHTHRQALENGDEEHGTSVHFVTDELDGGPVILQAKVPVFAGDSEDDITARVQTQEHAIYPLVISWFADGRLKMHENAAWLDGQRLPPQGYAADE
Nature of the experiment: E. coli GAR TFase inhibition/activity assay (5,8-dideazafolate absorbance at 295 nm). Particulars: E. coli GAR TFase, 26° C, 1 nM enzyme, saturating substrates. The class given is biochemical. On the procedure: All assays were carried out by following the increase of 5,8-dideazafolate absorbence at 295 nm in buffered medium at 26° C. To initiate the reaction, enzyme (1 nM final concentration) was added to a mixture of saturating substrates and variable amounts of inhibitor. A characteristic family of curves was obtained, showing slow, tight-binding inhibition. See, Morrison, Trends Biochem. Sc., 7, 102 (1982) and Morrison, et al., Adv. Enzymology, Relat. Areas Mol. Biol., 57, 201-301 (1987).
In analyzing the biological activity of the compounds of the present invention, GAR TFase from E. coli was used. This enzyme behaves like the mammalian and avian enzyme with respect to substrate specificity, yet is a simple and effective system having only one biological activity. That is, unlike the avian trifunctional GAR TFase, the E. coli species has a sole function. This follows from the genetic evidence of Smith and Daum, J. Biol. Chem., 262, 10565-10569 (1987) as w®11 as the work of Schrimsher et al., Biochemistry, 25, 4366-4371 (1986) who have shown that […] from E. coli is a monofunctional protein, whereas, in chicken it belongs to a trifunctional protein containing, the activates: GAR SYNthase, GAR TFase, and AIR SYNthase.
The E. coli GAR TFase binding constants for the compounds of the present invention and other folate analogs are shown in Table I below:
Table II illustrates the specificity of beta-TGDDF for GAR TFase in comparison with other reduced-folate utilizing enzymes. This test, was conducted using the same [I]/[E]ratios as stated previously.

Structures are written as SMILES.

For `Nc1nc2ccc(CN(C(=O)CSCC(=O)N[C@@H]3O[C@H](COP(=O)(O)O)[C@@H](O)[C@H]3O)c3ccc(C(=O)N[C@@H](CCC(=O)O)C(=O)O)cc3)cc2c(=O)[nH]1` [beta-TGDDF, N^10-[5'-phosphoribosyl-1'-β-amino-carbonylmethyl-1-thioacetyl]-5,8-dideazafolate], the Extent of inhibition entry at GAR TFase (L1210) (20 nM beta-TGDDF, 1 nM enzyme) is “inhibited by roughly the same magnitude”. The Mode of inhibition entry is on record as “inhibition of a slow, tight binding nature” at GAR TFase (L1210); “slow, tight-binding inhibitor” on GAR TFase (L1210) (listed as Beta-TGDDF); “slow, tight-binding inhibitor” on E. coli GAR TFase.
